Laboratory results from PMC6748410, “A phase 2 study of an oral mTORC1/mTORC2 kinase inhibitor (CC-223) for non-pancreatic neuroendocrine tumors with or without carcinoid symptoms” (PLoS ONE, 2019).

What was measured:
[1] = Treatment-related adverse events and tolerability (CTCAE v4.0) in patients with NET; format: in vivo
Method: CC-223 capsules were taken orally once daily in continuous 28-day cycles. An initial cohort started CC-223 at a dose of 45 mg; this was the maximum tolerated dose (MTD) established in phase 1 but, after observing a high rate of dose adjustments due to toxicity among patients with NET, a second cohort started CC-223 at 30 mg. To mitigate toxicity, dosage could be adjusted with either short interruptions, dose level reductions, or every-other-day administration. Treatment was permanently discontinued for disease progression, unmanageable toxicity, patient withdrawal of consent, or other reasons specified by the protocol as requiring study withdrawal.
Baseline assessments were completed within 28 days prior to first dose of CC-223. Drug tolerability was continuously evaluated until 28 days after the last dose, using clinical event and laboratory test monitoring comprising a conventional hematologic and coagulation (if taking anti-coagulants) panel; serum electrolytes; fasting blood glucose (this also included daily self-monitoring with finger stick samples for the first month and for longer if necessary), HbA1c, insulin, and c-peptide; liver enzymes; serum creatinine; and protein. Others included serum uric acid, amylase and lipase, lipoproteins, thyroid function tests, creatine kinase, and immunoglobulins including T-cell subsets (CD4+ and CD8+). We also performed serial triplicate electrocardiograms (ECGs), periodic left ventricular ejection fraction estimations (echo or multiple gated acquisition [MUGA]), regular physical exams and vital sign measurements (heart rate, blood pressure, respiratory rate, and temperature). Adverse events were coded with Medical Dictionary for Regulatory Activities (MedDRA) version 19.0. Severity of adverse events was classified using the National Cancer Institute Common Terminology Criteria for Adverse Events (CTCAE) version 4.0. A safety review committee provided study oversight.

pAKT (mTORC2) = test: Stimulated blood biomarker assay in monocytes (CD14+) for pAKT (mTORC2 inhibition); format: in vivo, human; conditions: for pAKT median inhibition from baseline: 30 mg; for Blood pAKT median inhibition: 45 mg
Method: Central laboratories conducted serial stimulated blood biomarker assays in monocytes (CD14+) for p4E-BP1 and pPKB (also known as pAKT) for assessment of mTORC1 and mTORC2 inhibition, respectively. Monthly changes from baseline for chromogranin A (CgA), and for other serum hormones if elevated, were assayed locally.

[2] = parameters: method as in doi:10.1200/jco.2013.31.15_suppl.2606; conditions: non-small cell lung cancer and hepatocellular carcinoma cohorts dosed at 45 mg; cited from earlier work
[3] = 30 mg starting dose (n = 23), any grade
[4] = 45 mg starting dose (n = 24), any grade

CO[C@H]1CC[C@H](N2C(=O)CNc3ncc(-c4ccc(C(C)(C)O)nc4)nc32)CC1 [CC-223]
Patients requiring 1 dose reduction ([1]; 30 mg group (n = 23)): 11 patients | Patients requiring 2 dose reductions ([1]; 30 mg group (n = 23)): 7 patients | Patients requiring more than 2 dose reductions ([1]; 30 mg group (n = 23)): 0 patients | Treatment-related adverse event: AST increased [1, 3]: 3 (13.0) n (%) | Treatment-related adverse event: Abdominal pain [1, 3]: 2 (8.7) n (%) | Treatment-related adverse event: Asthenia [1, 3]: 7 (30.4) n (%) | Treatment-related adverse event: Blood creatinine increased [1, 3]: 4 (17.4) n (%) | Treatment-related adverse event: Decreased appetite [1, 3]: 4 (17.4) n (%) | Treatment-related adverse event: Dehydration [1, 3]: 4 (17.4) n (%) | Treatment-related adverse event: Diarrhea [1, 3]: 17 (73.9) n (%) | Treatment-related adverse event: Dry mouth [1, 3]: 2 (8.7) n (%) | Treatment-related adverse event: Dysgeusia [1, 3]: 3 (13.0) n (%) | Treatment-related adverse event: Fatigue [1, 3]: 17 (73.9) n (%) | Treatment-related adverse event: Hyperglycemia [1, 3]: 5 (21.7) n (%) | Treatment-related adverse event: Maculopapular rash [1, 3]: 3 (13.0) n (%) | Treatment-related adverse event: Malaise [1, 3]: 3 (13.0) n (%) | Treatment-related adverse event: Mucosal inflammation [1, 3]: 3 (13.0) n (%) | Treatment-related adverse event: Nausea [1, 3]: 6 (26.1) n (%) | Treatment-related adverse event: Pruritus [1, 3]: 7 (30.4) n (%) | Treatment-related adverse event: Rash [1, 3]: 6 (26.1) n (%) | Treatment-related adverse event: Rash macular [1, 3]: 2 (8.7) n (%) | Treatment-related adverse event: Stomatitis [1, 3]: 11 (47.8) n (%) | Treatment-related adverse event: Vomiting [1, 3]: 2 (8.7) n (%) | Patients requiring 1 dose reduction ([1]; 45 mg group (n = 24)): 3 patients | Patients requiring more than 2 dose reductions ([1]; 45 mg group (n = 24)): 2 patients | Tolerability in the NET cohort ([1]; 45 mg once daily): not well-tolerated | Treatment-related adverse event: AST increased [1, 4]: 2 (8.3) n (%) | Treatment-related adverse event: Abdominal pain [1, 4]: 3 (12.5) n (%) | Treatment-related adverse event: Asthenia [1, 4]: 4 (16.7) n (%) | Treatment-related adverse event: Blood creatinine increased [1, 4]: 3 (12.5) n (%) | Treatment-related adverse event: Decreased appetite [1, 4]: 8 (33.3) n (%) | Treatment-related adverse event: Dehydration [1, 4]: 4 (16.7) n (%) | Treatment-related adverse event: Diarrhea [1, 4]: 19 (79.2) n (%) | Treatment-related adverse event: Dry mouth [1, 4]: 5 (20.8) n (%) | Treatment-related adverse event: Dysgeusia [1, 4]: 5 (20.8) n (%) | Treatment-related adverse event: Fatigue [1, 4]: 14 (58.3) n (%) | Treatment-related adverse event: Hyperglycemia [1, 4]: 8 (33.3) n (%) | Treatment-related adverse event: Maculopapular rash [1, 4]: 9 (37.5) n (%) | Treatment-related adverse event: Malaise [1, 4]: 4 (16.7) n (%) | Treatment-related adverse event: Mucosal inflammation [1, 4]: 3 (12.5) n (%) | Treatment-related adverse event: Nausea [1, 4]: 12 (50.0) n (%) | Treatment-related adverse event: Pruritus [1, 4]: 12 (50.0) n (%) | Treatment-related adverse event: Rash [1, 4]: 12 (50.0) n (%) | Treatment-related adverse event: Rash macular [1, 4]: 4 (16.7) n (%) | Treatment-related adverse event: Stomatitis [1, 4]: 14 (58.3) n (%) | Treatment-related adverse event: Vomiting [1, 4]: 5 (20.8) n (%) | Patients with one or more serious adverse event related to CC-223 ([1]; 8 of 47 patients): 17% | Patients who remained on the dose initially assigned ([1]; 12 of 47 patients): 26% | Treatment-related adverse event: AST increased ([1]; Any dose (N = 47), Grade 3): 2 (4.3) n (%) | Treatment-related adverse event: Abdominal pain ([1]; Any dose (N = 47), Grade 3): 1 (2.1) n (%) | Treatment-related adverse event: Asthenia ([1]; Any dose (N = 47), Grade 3): 3 (6.4) n (%) | Treatment-related adverse event: Blood creatinine increased ([1]; Any dose (N = 47), Grade 3): 1 (2.1) n (%) | Treatment-related adverse event: Decreased appetite ([1]; Any dose (N = 47), Grade 3): 1 (2.1) n (%) | Treatment-related adverse event: Dehydration ([1]; Any dose (N = 47), Grade 3): 1 (2.1) n (%) | Treatment-related adverse event: Diarrhea ([1]; Any dose (N = 47), Grade 3): 18 (38.3) n (%) | Treatment-related adverse event: Dry mouth ([1]; Any dose (N = 47), Grade 3): 0 n (%) | Treatment-related adverse event: Dysgeusia ([1]; Any dose (N = 47), Grade 3): 0 n (%) | Treatment-related adverse event: Fatigue ([1]; Any dose (N = 47), Grade 3): 10 (21.3) n (%) | Treatment-related adverse event: Hyperglycemia ([1]; Any dose (N = 47), Grade 3): 0 n (%) | Treatment-related adverse event: Maculopapular rash ([1]; Any dose (N = 47), Grade 3): 3 (6.4) n (%) | Treatment-related adverse event: Malaise ([1]; Any dose (N = 47), Grade 3): 0 n (%) | Treatment-related adverse event: Mucosal inflammation ([1]; Any dose (N = 47), Grade 3): 0 n (%) | Treatment-related adverse event: Nausea ([1]; Any dose (N = 47), Grade 3): 1 (2.1) n (%) | Treatment-related adverse event: Pruritus ([1]; Any dose (N = 47), Grade 3): 2 (4.3) n (%) | Treatment-related adverse event: Rash ([1]; Any dose (N = 47), Grade 3): 1 (2.1) n (%) | Treatment-related adverse event: Rash macular ([1]; Any dose (N = 47), Grade 3): 1 (2.1) n (%) | Treatment-related adverse event: Stomatitis ([1]; Any dose (N = 47), Grade 3): 5 (10.6) n (%) | Treatment-related adverse event: Vomiting ([1]; Any dose (N = 47), Grade 3): 2 (4.3) n (%) | Treatment-related adverse event: AST increased ([1]; Any dose (N = 47), any grade): 5 (10.6) n (%) | Treatment-related adverse event: Abdominal pain ([1]; Any dose (N = 47), any grade): 5 (10.6) n (%) | Treatment-related adverse event: Asthenia ([1]; Any dose (N = 47), any grade): 11 (23.4) n (%) | Treatment-related adverse event: Blood creatinine increased ([1]; Any dose (N = 47), any grade): 7 (14.9) n (%) | Treatment-related adverse event: Decreased appetite ([1]; Any dose (N = 47), any grade): 12 (25.5) n (%) | Treatment-related adverse event: Dehydration ([1]; Any dose (N = 47), any grade): 8 (17.0) n (%) | Treatment-related adverse event: Diarrhea ([1]; Any dose (N = 47), any grade): 36 (76.6) n (%) | Treatment-related adverse event: Dry mouth ([1]; Any dose (N = 47), any grade): 7 (14.9) n (%) | Treatment-related adverse event: Dysgeusia ([1]; Any dose (N = 47), any grade): 8 (17.0) n (%) | Treatment-related adverse event: Fatigue ([1]; Any dose (N = 47), any grade): 31 (66.0) n (%) | Treatment-related adverse event: Hyperglycemia ([1]; Any dose (N = 47), any grade): 13 (27.7) n (%) | Treatment-related adverse event: Maculopapular rash ([1]; Any dose (N = 47), any grade): 12 (25.5) n (%) | Treatment-related adverse event: Malaise ([1]; Any dose (N = 47), any grade): 7 (14.9) n (%) | Treatment-related adverse event: Mucosal inflammation ([1]; Any dose (N = 47), any grade): 6 (12.8) n (%) | Treatment-related adverse event: Nausea ([1]; Any dose (N = 47), any grade): 18 (38.3) n (%) | Treatment-related adverse event: Pruritus ([1]; Any dose (N = 47), any grade): 19 (40.4) n (%) | Treatment-related adverse event: Rash ([1]; Any dose (N = 47), any grade): 18 (38.3) n (%) | Treatment-related adverse event: Rash macular ([1]; Any dose (N = 47), any grade): 6 (12.8) n (%) | Treatment-related adverse event: Stomatitis ([1]; Any dose (N = 47), any grade): 25 (53.2) n (%) | Treatment-related adverse event: Vomiting ([1]; Any dose (N = 47), any grade): 7 (14.9) n (%) | Most common TRAEs: asthenia ([1]; any grade, n = 47): 23% | Most common TRAEs: decreased appetite ([1]; any grade, n = 47): 26% | Most common TRAEs: diarrhea ([1]; any grade, n = 47): 77% | Most common TRAEs: fatigue ([1]; any grade, n = 47): 66% | Most common TRAEs: hyperglycemia ([1]; any grade, n = 47): 28% | Most common TRAEs: maculopapular rash ([1]; any grade, n = 47): 26% | Most common TRAEs: nausea ([1]; any grade, n = 47): 38% | Most common TRAEs: pruritus ([1]; any grade, n = 47): 40% | Most common TRAEs: rash ([1]; any grade, n = 47): 38% | Most common TRAEs: stomatitis ([1]; any grade, n = 47): 53% | Patients who reported at least one treatment-related adverse event (TRAE) ([1]; by investigator determination, n = 47): 98% | Patients with doses reduced for extended periods to levels as low as 15 mg ([1]; human, in vivo): 45% | Deaths on study due to treatment-related toxicity ([1]; n = 47): No patient died | Grade 3 or higher toxicity: diarrhea ([1]; n = 47): 38% | Grade 3 or higher toxicity: fatigue ([1]; n = 47): 21% | Grade 3 or higher toxicity: stomatitis ([1]; n = 47): 11% | Grade 4 or 5 toxicities among the most common adverse events ([1]; n = 47): no grade 4 or 5 toxicities reported | Patients who discontinued CC-223 because of toxicity ([1]; n = 47): 13% | Patients who experienced grade 3 or 4 treatment-related events ([1]; n = 47): 79% | Patients who required dose adjustments due to toxicity ([1]; n = 47): 85% | Toxicity causing discontinuation: decreased appetite ([1]; n = 47): 6% | Toxicity causing discontinuation: diarrhea ([1]; n = 47): 9% | Toxicity causing discontinuation: nausea ([1]; n = 47): 4% | Toxicity requiring dose adjustments: diarrhea ([1]; n = 47): 40% | Toxicity requiring dose adjustments: fatigue ([1]; n = 47): 17% | Toxicity requiring dose adjustments: increased blood creatinine ([1]; n = 47): 13% | Toxicity requiring dose adjustments: stomatitis ([1]; n = 47): 17% | Patients requiring 2 dose reductions ([1]; overall, n = 47): 19 patients | Patients requiring more than 2 dose reductions ([1]; overall, n = 47): 4 patients | Mean time to first dose reduction ([1]; overall, range 8–589 days): 46 days | pAKT median inhibition from baseline (pAKT (mTORC2); after the first dose): 59% | pAKT median inhibition from baseline (pAKT (mTORC2); day 15 after multiple doses): 79% | Blood pAKT median inhibition (pAKT (mTORC2); 1.5 hours after a single dose (day 1)): 83% | Blood pAKT median inhibition (pAKT (mTORC2); after multiple doses (day 15)): 76% | pAKT median biomarker inhibition relative to baseline (pAKT (mTORC2); across both dose level cohorts (45 mg or 30 mg), 1.5 hours after multiple dosing on day 15): > 70% | Patients with dose reductions [2]: > 50%
